Laboratory results reported in US20170291905A1, “ARGININE […] INHIBITORS AND USES THEREOF” (Epizyme, Inc., priority 2014, published 2017).

Target: T1, PRMT1 (Homo sapiens, UniProt Q99873)
T1 construct: host or cells: RKO cells
Test: RKO methylation assay, In Cell Western (ICW) for mono-methyl arginine and DNA content
Format: cell-based
Conditions: RKO cells, 72 hours, mono-methyl arginine signal normalised to DRAQ5, percent activation
Source text: RKO Methylation Assay RKO adherent cells were purchased from ATCC (American Type Culture Collection), Manassas, Va., USA. DMEM/Glutamax medium, penicillin-streptomycin, heat inactivated fetal bovine serum, 0.05% trypsin and D-PBS were purchased from Life Technologies, Grand Island, N.Y., USA. Odyssey blocking buffer, 800CW goat anti-rabbit IgG (H+L) antibody, and Licor Odyssey infrared scanner were purchased from Licor Biosciences, Lincoln, Nebr., USA. Mono-methyl arginine antibody was purchased from Cell Signaling Technology, Danvers, Mass., USA. Methanol was purchased from VWR, Franklin, Mass., USA. 10% Tween 20 was purchased from KPL, Inc., Gaithersburg, Md., USA. DRAQ5 was purchased from Biostatus Limited, Leicestershire, UK. RKO adherent cells were maintained in growth medium (DMEM/Glutamax medium supplemented with 10% v/v heat inactivated fetal bovine serum and 100 units/mL penicillin-streptomycin) and cultured at 37° C. under 5% CO2. Cell Treatment, in Cell Western (ICW) for Detection of Mono-Methyl Arginine and DNA Content. RKO cells were seeded in assay medium at a concentration of 20,000 cells per mL to a poly-D-lysine coated 384 well culture plate (BD Biosciences 356697) with 50 μL per well. Compound (100 nL) from a 96-well source plate was added directly to 384 well cell plate. Plates were incubated at 37° C., 5% CO2 for 72 hours. After three days of incubation, plates were brought to room temperature outside of the incubator for ten minutes and blotted on paper towels to remove cell media. 50 μL of ice cold 100% methanol was added directly to each well and incubated for 30 min at room temperature. After 30 min, plates were transferred to a Biotek EL406 plate washer and washed 2 times with 100 μL per well of wash buffer (1×PBS). Next 60 μL per well of Odyssey blocking buffer (Odyssey Buffer with 0.1% Tween 20 (v/v)) were added to each plate and incubated 1 hour at room temperature. Blocking buffer was removed and 20 μL per well of primary antibody was added (mono-methyl arginine diluted 1:200 in Odyssey buffer with 0.1% Tween 20 (v/v)) and plates were incubated overnight (16 hours) at 4° C. Plates were washed 5 times with 100 μL per well of wash buffer. Next 20 μL per well of secondary antibody was added (1:200 800CW goat anti-rabbit IgG (H+L) antibody, 1:1000 DRAQ5 (Biostatus limited) in Odyssey buffer with 0.1% Tween 20 (v/v)) and incubated for 1 hour at room temperature. The plates were washed 5 times with 100 μL per well wash buffer then 2 times with 100 μL per well of water. Plates were allowed to dry at room temperature then imaged on the Licor Odyssey machine which measures integrated intensity at 700 nm and 800 nm wavelengths. Both 700 and 800 channels were scanned. […] Each plate included fourteen control wells of DMSO only treatment (minimum activation) as well as fourteen control wells for maximum activation treated with 20 μM of a reference compound. The average of the ratio values for each control type was calculated and used to determine the percent activation for each test well in the plate. Reference compound was serially diluted three-fold in DMSO for a total of nine test concentrations, beginning at 20 μM. Percent activation was determined and EC30 curves were generated using triplicate wells per concentration of compound.

T1 sequence (Q99873 whole entry): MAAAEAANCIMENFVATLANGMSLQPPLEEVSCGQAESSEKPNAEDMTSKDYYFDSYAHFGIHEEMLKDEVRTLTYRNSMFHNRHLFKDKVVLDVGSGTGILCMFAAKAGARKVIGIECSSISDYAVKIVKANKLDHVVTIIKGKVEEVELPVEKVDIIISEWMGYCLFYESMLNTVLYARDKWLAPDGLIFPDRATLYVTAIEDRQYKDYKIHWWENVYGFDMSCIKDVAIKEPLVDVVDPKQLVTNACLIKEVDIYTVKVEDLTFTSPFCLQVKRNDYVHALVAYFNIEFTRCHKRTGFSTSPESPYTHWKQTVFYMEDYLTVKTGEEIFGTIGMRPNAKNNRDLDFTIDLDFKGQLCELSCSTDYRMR

PRMT1 RGG ICW EC30 [µM]	SMILES
1.388	CCOCCOCC1(COCCOCC)CCC(c2n[nH]cc2CN(C)CCNC)CC1 [compound 39, N1-((3-(4,4-bis((2-ethoxyethoxy)methyl)cyclohexyl)-1H-pyrazol-4-yl)methyl)-N1,N2-dimethylethane-1,2-diamine]
0.05141	CN(C)CCN(C)Cc1c[nH]nc1[C@H]1CC[C@@]2(CC1)CC(C)(C)CO2 [compound 42, N1-((3-((5S,8S)-3,3-dimethyl-1-oxaspiro[4.5]decan-8-yl)-1H-pyrazol-4-yl)methyl)-N1,N2,N2-trimethylethane-1,2-diamine]
0.3671	CCC1(CC)C[C@]2(CC[C@H](c3n[nH]cc3CN(C)CCNC)CC2)NC1=O [compound 47, (5s,8s)-3,3-diethyl-8-(4-((methyl(2-(methylamino)ethyl)amino)methyl)-1H-pyrazol-3-yl)-1-azaspiro[4.5]decan-2-one]
0.08301	CC[C@H]1CC[C@@H](c2n[nH]cc2CN(C)CCNC)CC1 [compound 1]
0.1851	CNCCN(C)Cc1c[nH]nc1C1=CCC2(CC1)CC(C)(C)CO2 (centres unmarked) [compound 46, N1-((3-(3,3-dimethyl-1-oxaspiro[4.5]dec-7-en-8-yl)-1H-pyrazol-4-yl)methyl)-N1,N2-dimethylethane-1,2-diamine]
0.1113	CNCCN(C)Cc1ccnn1[C@H]1CC[C@@]2(CC1)CC(C)(C)CO2 [compound 49, N1-((1-((5s,8s)-3,3-dimethyl-1-oxaspiro[4.5]decan-8-yl)-1H-pyrazol-5-yl)methyl)-N1,N2-dimethylethane-1,2-diamine]

Further lines, the compound ahead of its results:

SMILES	PRMT1 RGG ICW EC30 [µM]
CNCCN(C)Cc1c[nH]nc1C1CCC(CO)(CO)CC1 [compound 44, (4-(4-((methyl(2-(methylamino)ethyl)amino)methyl)-1H-pyrazol-3-yl)cyclohexane-1,1-diyl)dimethanol]	>5.0
CCC1(CC)C[C@]2(CC[C@@H](c3n[nH]cc3CN(C)CCNC)CC2)NC1=O [compound 48, (5r,8r)-3,3-diethyl-8-(4-((methyl(2-(methylamino)ethyl)amino)methyl)-1H-pyrazol-3-yl)-1-azaspiro[4.5]decan-2-one]	>5.0
CN(C)CCN(C)Cc1c[nH]nc1[C@H]1CC[C@]2(CC1)CC(C)(C)CO2 [compound 43, N1-((3-((5r,8r)-3,3-dimethyl-1-oxaspiro[4.5]decan-8-yl)-1H-pyrazol-4-yl)methyl)-N1,N2,N2-trimethylethane-1,2-diamine]	0.6228
CNCCN(C)Cc1c[nH]nc1C1CCC(COCCC2CCOCC2)(COCCC2CCOCC2)CC1 [compound 40]	0.4585
CNCCN(C)Cc1c[nH]nc1C1CCC(COCC2CC2)(COCC2CC2)CC1 [compound 41, N1-((3-(4,4-bis((cyclopropylmethoxy)methyl)cyclohexyl)-1H-pyrazol-4-yl)methyl)-N1,N2-dimethylethane-1,2-diamine]	0.06748
